Experimental data reported in paper PMC5057104, “The unravelling of the complex pattern of tyrosinase inhibition” (Scientific Reports, 2016).
Several values for one entry are separate records, joined by “and”; a condition that tells them apart may be missing. Identical values can stand only once. Entries after “also recorded” stand apart in the source; their conditions may differ. Like-named read-outs stand apart in the source and are kept apart here.

What was measured:
[1] = target: T1, TyrBm (tyrosinase from Bacillus megaterium) (Priestia megaterium, UniProt B2ZB02); assay: Kinetic analysis of tyrosinase (Lineweaver-Burk plots); format: biochemical; design: made in house; host or cells: Escherichia coli BL21
T1 sequence (B2ZB02 1-297): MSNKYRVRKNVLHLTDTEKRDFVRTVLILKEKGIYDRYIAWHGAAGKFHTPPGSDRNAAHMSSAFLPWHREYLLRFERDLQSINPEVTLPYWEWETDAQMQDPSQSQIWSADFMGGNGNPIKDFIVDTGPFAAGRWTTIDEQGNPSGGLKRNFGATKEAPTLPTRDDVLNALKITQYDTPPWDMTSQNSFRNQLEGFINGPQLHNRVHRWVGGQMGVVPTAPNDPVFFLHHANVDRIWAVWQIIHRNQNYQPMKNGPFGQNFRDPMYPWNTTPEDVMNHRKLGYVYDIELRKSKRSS
Method: All measurements were performed in seven replicates.
The inhibitor concentrations were mentioned above. The inhibition kinetics module of Sigma Plot 13.0 software was used (Systat Software, Inc., Richmond, CA, USA). All measurements were performed in 5-replicates.

[2] = target: T1, TyrBm (tyrosinase from Bacillus megaterium); assay: biochemical; format: binding; design: made in house; host or cells: Escherichia coli BL21
Method: TyrBm was labeled fluorescently with a RED dye (NT-647-NHS) according to the manufacturer’s protocol (NanoTemper Technologies, Munich, Germany). Non-bound dye was removed by purification of the enzyme on a Sephadex G-25 column with buffers provided in the commercial kit. […] Approximately 10 μl of sample was loaded into hydrophilic monolith NT capillaries and the measurement was performed in a NanoTemper Monolith NT.015T instrument. The emission of the red fluorescence was recorded at a focused location of the capillary. In the same location, a microscopic temperature gradient was created using an infrared laser and the fluorescence depletion was measured. According to changes in the fluorescent thermophoresis signal and the concentrations of unlabeled inhibitor, the dissociation constant values were determined by the NanoTemper analysis software.
(b) Titration of rising concentrations of
(c) Titration of rising concentrations of L-tyrosine (0-
The reactions contained constant concentration of TyrBm
(§1) (1 picture or pasted object on this page, not shown here)

[3] = target: T1, TyrBm (tyrosinase from Bacillus megaterium); conditions: 1 mM L-dopa
Method: Measurements were carried out using a Hansatech Oxygraph+ electrode (Norfolk, UK) in a reaction volume of 1000 μL.
(a) Spectrophotometric recordings measured at 475 nm. All measurements were performed in heptaplicates. (b) Oxygen consumption recordings. The inset presents the oxygen […]
measurements were performed in triplicates. The reactions contained 4 µg ml-1 of purified […]
The slopes representing the activity rate are given for each graph.
as §1

[4] = target: T1, TyrBm (tyrosinase from Bacillus megaterium); assay: biochemical
Method: Tyrosinase inhibitory activity was determined spectrophotometrically in 96-well plates with a final volume of 200 μl. First, 50 mM PBS buffer pH 7.4 and 0.01 mM CuSO4 were mixed with 6 μg ml^−1 of purified enzyme. Then, the mixture was incubated at 40 °C for 2 minutes. […] Specific activity was calculated as the ratio of the conversion rate and the total protein content as determined by the Bradford analysis method (Bio-Rad, Israel). All measurements were performed in seven replicates.

[5] = target: T1, TyrBm (tyrosinase from Bacillus megaterium)
Method: The formation of HBP was monitored by measuring the absorbance at 475 nm[26].
Batel Deria,§, Margarita Kanteeva,§, Mor Goldfedera, Daniel Lecinab, Victor Guallarb,c,
Noam Adird, and Ayelet Fishmana,†
presence of reducing agents measured at 475 nm.
increasing concentrations of L-dopa (0-3 mM).
as the substrate in the presence of increasing concentrations of H2O2 (0-90 mM).
reactions contained 6 µg ml-1 of purified TyrBm, 50 mM PBS buffer pH 7.4 and 0.01 mM
as §1

[6] = system: Agaricus bisporus tyrosinase; conditions: HQ as substrate; cited from earlier work
[7] = target: mushroom tyrosinase; conditions: cited from earlier work

In the case of `Oc1ccc(O)cc1` [HQ, hydroquinone], the Inhibition mode ([1]; diphenolase activity, substrate L-dopa) is reported as “no inhibition; also recorded: does not inhibit”, the Inhibition mode ([1]; monophenolase activity, substrate L-tyrosine) is reported as “competitive” and the Ki ([1]; substrate L-tyrosine) is reported as 40 ± 10 µM. For the same compound, the “Vmax (apparent, in presence of inhibitor)” value ([1]; substrate L-tyrosine) was 9.0 µmol/min/mg and 9.0 ± 0.5 µmol/min/mg, the “kcat (in presence of inhibitor)” value ([1]; substrate L-tyrosine) was 5.3 s⁻¹ and the Kd [2] was 9 ± 1 µM. The “dissociation constant higher than L-tyrosine” value [2] was 90 fold, the “activity of TyrBm with L-dopa and HQ higher than with L-dopa alone” value ([3]; oxygen consumption measurements, 0.1 mM HQ) was 8% and the “effect on TyrBm activity on L-dopa” value ([3]; spectrophotometric and oxygen consumption recordings, 0.1 mM compound) was “enhances activity”. For the same compound, the IC50 [4] was 32 ± 2 µM, the Vmax ([5]; HQ as substrate in the presence of H2O2 (100 mM)) was 19 µmol/min/mg and the “activity of TyrBm with L-dopa and HQ higher than with L-dopa alone” value ([5]; absorbance readings at 475 nm, 1 mM L-dopa, 0.1 mM HQ) was 17%. The “TyrBm activity with HQ as a sole substrate” value ([5]; several hours, without H2O2 or L-dopa, visual, vs control without enzyme) was “low activity was visually observed”, the Km [6] was 250 µM and the “IC50 with L-dopa higher in comparison to L-tyrosine” value [7] was 80 fold. For the same compound, the Ki ([7]; competitive, ref 25 Chawla et al.) was 83 µM and the IC50 ([7]; monophenols) was 33.5 µM.
In the case of `N[C@@H](Cc1ccc(O)cc1)C(=O)O` [L-tyrosine], the Kd ([2]; read-out: KD) is reported as 0.1 ± 0.03 µM.
In the case of `O=c1cccccc1O` [Tropolone], the Inhibition mode [7] is listed as “mixed”.
